Data published in article PMC8151276, “An Integrated Approach toward NanoBRET Tracers for Analysis of GPCR Ligand Engagement” (Molecules, 2021).

Columns and labels:
Assay type in all cases: binding
FZD2 = target: T1, FZD2 (Homo sapiens, UniProt Q14332); test: NanoBRET screen HiBiT-FZD2 in HEK293
T1 construct: purchased Promega (in-house HiBiT-GPCR construct library, NanoBRET)
Procedure: (§1) Each tracer candidate was screened across the entire library of HiBiT-GPCR constructs using NanoBRET as the detection modality. As depicted in Figure 4A, the specificity of interactions was evaluated through decrease in BRET due to competitive displacement of a bound tracer by excess parental compound. Each tracer was analyzed for binding to each HiBiT-GPCR fusion in the absence and in the presence of competing parental compound. Briefly, HEK293 cells were transfected with HiBiT-GPCR constructs diluted into promoterless DNA to reduce expression and maximize translocation to the cell surface. Each tracer candidate was then screened at concentrations of 1 μM and 0.1 μM across cells expressing these fusions. Cells were treated for 1.5 h with tracer either alone or in the presence of 20 μM competing parental compound (i.e., control). BRET was measured upon addition of purified LgBiT and subsequent complementation with HiBiT genetically fused to a GPCR. The specificity of interactions was assessed through a decrease in BRET signal due to competitive displacement of the bound tracer. To further gauge the robustness of these interactions, the fold response over the control (i.e., BRETtracer/BRETcontrol) was calculated. We chose a 1.5-fold response, which translates to ≥7-fold signal over noise as the minimal threshold required to score an interaction as positive. […]. Below we highlight the screening results obtained for our exemplary fluorescent tracers based on Clozapine, Amitriptyline and AZD1283.
(§2) HiBiT-GPCR DNA constructs were diluted in 10 mM Tris pH 8 to a final concentration of 0.01 μg/μL, arrayed in 96-well plates and stored at −20 °C. For transfection, HEK293 cells were suspended in Opti-MEM (without phenol red) supplemented with 2% fetal bovine serum (Seradigm) and 100 units/mL penicillin–streptomycin (Gibco) at a final concentration of 220,000 cells/mL and dispensed into white 96-well plates at 90 μL/well. Subsequent transfections and screens were carried using an Agilent Bravo Automated Liquid Handling Platform. First, the 96-well HiBiT DNA arrays were diluted 25-fold in Opti-MEM (without serum or phenol red) to a final concentration of 0.0004 μg/μL and 20 μL of the diluted DNAs were transferred into new 96-well plates. Next, promoterless carrier DNA (1 μg/μL) was diluted 25-fold (0.04 μg/μL) and then dispensed into the diluted arrays at 20 μL/well. Following brief mixing, Viafect transfection reagent (Promega) diluted 16-fold into Opti-MEM was dispensed into the plates at 40 μL/well. After mixing by pipetting, plates were incubated for 10 min on the pipetting station deck. The DNA-transfection reagent complexes were then added to plates containing cells. To facilitate the screen, 10 μL of DNA-transfection reagent complexes were added in duplicates to the top 4 and bottom 4 rows, resulting in two identical 48-well arrays per plate. Plates with transfected cells were incubated for 18–20 h at 37 °C/5% CO2. A screen of each tracer across the entire library using two different concentrations requires duplicate plates of transfected cells. Depending on the number of tracers being screened, transfections can be scaled up using the same ratios. The next day, for each tracer, four 20× screening solutions in tracer dilution buffer (Promega) were prepared: two duplicates at final concentration of 20 μM and two duplicates at a final concentration of 2 μM. A competing unmodified compound was added to one of each duplicate at a final concentration of 400 μM. The four resulting solutions were diluted 4-fold in Opti-MEM without serum or phenol red to generate 5× solutions (5 µM and 0.5 µM tracer +/− 100 μM competing compound). To screen the library, a BioTek MultiFlo FX liquid dispenser was used to dispense 22.5 µL of tracer solution to the top 4 rows and 22.5 µL tracer + competing compound solution to the 4 bottom rows. Plates were briefly mixed on an orbital shaker and incubated for 1.5 h at room temperature. […]

P2RY2 = target: T2, P2RY2 (Homo sapiens, UniProt P41231); test: NanoBRET screen HiBiT-P2RY2 in HEK293
T2 construct: purchased Promega (in-house HiBiT-GPCR construct library, NanoBRET)
Procedure: as §1, §2

NTSR1 = target: T3, NTSR1 (Homo sapiens, UniProt P30989); test: NanoBRET screen HiBiT-NTSR1 in HEK293
T3 construct: purchased Promega (in-house HiBiT-GPCR construct library, NanoBRET)
Procedure: as §1, §2

F2R = target: T4, F2R (Homo sapiens, UniProt P25116); test: NanoBRET screen HiBiT-F2R in HEK293
T4 construct: purchased Promega (in-house HiBiT-GPCR construct library, NanoBRET)
T4 sequence (P25116 22-425): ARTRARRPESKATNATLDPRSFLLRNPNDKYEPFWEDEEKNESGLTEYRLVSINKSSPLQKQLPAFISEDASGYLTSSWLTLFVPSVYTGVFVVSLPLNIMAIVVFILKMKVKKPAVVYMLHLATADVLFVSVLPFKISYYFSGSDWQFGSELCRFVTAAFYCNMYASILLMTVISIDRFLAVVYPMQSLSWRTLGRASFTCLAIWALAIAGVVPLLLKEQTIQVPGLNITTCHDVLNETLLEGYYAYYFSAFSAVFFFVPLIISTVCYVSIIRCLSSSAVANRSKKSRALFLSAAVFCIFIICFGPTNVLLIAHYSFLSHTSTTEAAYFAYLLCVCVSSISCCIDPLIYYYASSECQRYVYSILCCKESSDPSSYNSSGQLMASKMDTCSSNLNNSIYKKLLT
Procedure: as §1, §2

TACR3 = target: T5, TACR3 (Homo sapiens, UniProt P29371); test: NanoBRET screen HiBiT-TACR3 in HEK293
T5 construct: purchased Promega (in-house HiBiT-GPCR construct library, NanoBRET)
T5 sequence (P29371 1-465): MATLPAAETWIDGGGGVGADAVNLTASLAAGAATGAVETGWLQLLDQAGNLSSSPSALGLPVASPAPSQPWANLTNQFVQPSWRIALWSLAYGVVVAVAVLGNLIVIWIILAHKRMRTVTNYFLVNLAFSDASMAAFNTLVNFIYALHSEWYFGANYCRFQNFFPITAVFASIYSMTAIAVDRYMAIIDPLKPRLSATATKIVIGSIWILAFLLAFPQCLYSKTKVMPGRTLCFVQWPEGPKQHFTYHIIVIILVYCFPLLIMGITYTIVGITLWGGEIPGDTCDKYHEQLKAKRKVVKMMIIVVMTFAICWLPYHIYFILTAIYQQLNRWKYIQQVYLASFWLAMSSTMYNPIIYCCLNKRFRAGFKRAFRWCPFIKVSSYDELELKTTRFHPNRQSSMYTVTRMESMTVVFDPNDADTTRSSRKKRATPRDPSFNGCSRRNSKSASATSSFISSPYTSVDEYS
Procedure: as §1, §2

T1 sequence (Q14332 24-565): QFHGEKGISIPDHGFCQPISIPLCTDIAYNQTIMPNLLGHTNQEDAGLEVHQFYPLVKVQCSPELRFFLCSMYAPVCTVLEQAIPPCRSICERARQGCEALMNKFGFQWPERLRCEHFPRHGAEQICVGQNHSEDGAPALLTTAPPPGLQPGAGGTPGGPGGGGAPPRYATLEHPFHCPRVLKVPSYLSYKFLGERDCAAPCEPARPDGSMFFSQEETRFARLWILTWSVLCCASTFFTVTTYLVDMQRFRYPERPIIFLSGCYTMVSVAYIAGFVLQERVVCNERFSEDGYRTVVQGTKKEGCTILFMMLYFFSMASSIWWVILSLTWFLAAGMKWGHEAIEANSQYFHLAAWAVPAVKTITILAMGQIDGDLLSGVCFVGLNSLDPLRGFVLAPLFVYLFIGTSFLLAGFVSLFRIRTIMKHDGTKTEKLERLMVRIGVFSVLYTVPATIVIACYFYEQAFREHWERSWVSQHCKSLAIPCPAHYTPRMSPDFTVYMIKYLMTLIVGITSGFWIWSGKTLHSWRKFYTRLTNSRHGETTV
T2 sequence (P41231 whole entry): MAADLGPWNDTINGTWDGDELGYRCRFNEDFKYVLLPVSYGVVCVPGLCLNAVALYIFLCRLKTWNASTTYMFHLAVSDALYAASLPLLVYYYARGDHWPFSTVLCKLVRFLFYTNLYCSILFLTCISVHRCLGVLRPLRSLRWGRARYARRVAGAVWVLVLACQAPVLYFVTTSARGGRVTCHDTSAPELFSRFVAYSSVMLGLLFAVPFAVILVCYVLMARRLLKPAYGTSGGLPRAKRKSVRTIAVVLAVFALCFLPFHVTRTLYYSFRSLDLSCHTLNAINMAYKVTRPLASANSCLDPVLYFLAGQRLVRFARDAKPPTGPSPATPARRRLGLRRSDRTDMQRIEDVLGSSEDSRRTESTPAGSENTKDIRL
T3 sequence (P30989 whole entry): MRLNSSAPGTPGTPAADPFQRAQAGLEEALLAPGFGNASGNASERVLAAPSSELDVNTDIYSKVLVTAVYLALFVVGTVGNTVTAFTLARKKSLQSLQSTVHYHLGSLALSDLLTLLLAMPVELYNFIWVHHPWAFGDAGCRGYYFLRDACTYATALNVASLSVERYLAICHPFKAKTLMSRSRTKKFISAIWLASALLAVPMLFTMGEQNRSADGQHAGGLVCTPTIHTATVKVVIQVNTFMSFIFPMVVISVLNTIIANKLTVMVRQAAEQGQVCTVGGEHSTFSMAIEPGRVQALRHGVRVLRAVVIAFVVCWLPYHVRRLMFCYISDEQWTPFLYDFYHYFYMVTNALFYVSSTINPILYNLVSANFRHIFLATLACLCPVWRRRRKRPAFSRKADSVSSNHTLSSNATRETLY

## O=C(CCOCCOCCOCCOCCNC(=O)CCc1ccc2n1[B-](F)(F)[N+]1=C(c3ccc[nH]3)C=CC1=C2)NCCCN1CCN(C2=Nc3ccccc3Oc3ccc(Cl)cc32)CC1 [Loxapine-a-2-NB590]
FZD2; FZD2, tracer 0.1μM
  NanoBRET Fold Response: 1.07
FZD2; FZD2, tracer 1μM
  NanoBRET Fold Response: 1.05
P2RY2; P2RY2, tracer 0.1μM
  NanoBRET Fold Response: 0.99
P2RY2; P2RY2, tracer 1μM
  NanoBRET Fold Response: 1.05
NTSR1; NTSR1, tracer 0.1μM
  NanoBRET Fold Response: 0.99
NTSR1; NTSR1, tracer 1μM
  NanoBRET Fold Response: 1.08
F2R; F2R, tracer 0.1μM
  NanoBRET Fold Response: 0.97
F2R; F2R, tracer 1μM
  NanoBRET Fold Response: 1.05
TACR3; TACR3, tracer 0.1μM
  NanoBRET Fold Response: 1.08
TACR3; TACR3, tracer 1μM
  NanoBRET Fold Response: 1.11

## CCCn1c(=O)c2[nH]c(-c3ccc(OCC(=O)NCCNC(=O)CCOCCNC(=O)c4ccc(CNC(=O)CCc5ccc6n5[B-](F)(F)[N+]5=C(c7ccc[nH]7)C=CC5=C6)cc4)cc3)nc2n(CCC)c1=O [XAC-3-NB590]
FZD2; FZD2, tracer 0.1μM
  NanoBRET Fold Response: 1.09
FZD2; FZD2, tracer 1μM
  NanoBRET Fold Response: 1.04
P2RY2; P2RY2, tracer 0.1μM
  NanoBRET Fold Response: 0.96
P2RY2; P2RY2, tracer 1μM
  NanoBRET Fold Response: 0.95
NTSR1; NTSR1, tracer 0.1μM
  NanoBRET Fold Response: 0.98
NTSR1; NTSR1, tracer 1μM
  NanoBRET Fold Response: 1.02
F2R; F2R, tracer 0.1μM
  NanoBRET Fold Response: 1.20
F2R; F2R, tracer 1μM
  NanoBRET Fold Response: 0.80
TACR3; TACR3, tracer 0.1μM
  NanoBRET Fold Response: 1.06
TACR3; TACR3, tracer 1μM
  NanoBRET Fold Response: 1.01

## CN(C)CCC=C1c2ccccc2CCc2ccc(C(=O)NCCNC(=O)CCOCCOCCOCCOCCNC(=O)CCc3ccc4n3[B-](F)(F)[N+]3=C(c5ccc[nH]5)C=CC3=C4)cc21 [Amitriptyline-a-2-NB590]
FZD2; tracer at 0.1μM
  NanoBRET Fold Response: 1.04
FZD2; tracer at 1μM
  NanoBRET Fold Response: 1.00
P2RY2; tracer at 0.1μM
  NanoBRET Fold Response: 1.00
P2RY2; tracer at 1μM
  NanoBRET Fold Response: 1.05
NTSR1; tracer at 0.1μM
  NanoBRET Fold Response: 1.05
NTSR1; tracer at 1μM
  NanoBRET Fold Response: 1.00
F2R; tracer at 0.1μM
  NanoBRET Fold Response: 0.94
F2R; tracer at 1μM
  NanoBRET Fold Response: 0.98
TACR3; tracer at 1μM
  NanoBRET Fold Response: 1.03

## CCOC(=O)c1cc(C#N)c(N2CCC(C(=O)NS(=O)(=O)Cc3ccccc3/C=C/C(=O)NCCNC(=O)CCc3ccc4n3[B-](F)(F)[N+]3=C(c5ccc[nH]5)C=CC3=C4)CC2)nc1C [AZD1283-1-NB590]
FZD2; FZD2, 0.1μM
  NanoBRET Fold Response: 1.04
FZD2; FZD2, 1μM
  NanoBRET Fold Response: 1.11
P2RY2; P2RY2, 0.1μM
  NanoBRET Fold Response: 1.08
P2RY2; P2RY2, 1μM
  NanoBRET Fold Response: 1.12
NTSR1; NTSR1, 0.1μM
  NanoBRET Fold Response: 1.04
NTSR1; NTSR1, 1μM
  NanoBRET Fold Response: 1.07
F2R; F2R, 0.1μM
  NanoBRET Fold Response: 1.01
F2R; F2R, 1μM
  NanoBRET Fold Response: 1.01
TACR3; TACR3, 0.1μM
  NanoBRET Fold Response: 1.10
TACR3; TACR3, 1μM
  NanoBRET Fold Response: 1.10
